Consider ten compounds from ChEMBL document CHEMBL1201862, “PubChem BioAssay data set” (2004).

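96-well plates; 48 h exposure; 5 concentrations. Endpoints by linear interpolation between flanking doses. Not reached: highest tested concentration assigned. GI50 is the concentration that inhibits growth by half.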 Active and inactive are the calls of the source. No stated cut-off is given here; in the data, active = GI50 up to about 1.1 µM and inactive = higher.

Test in all cases: NCI tumour cell line growth inhibition, 48 h
Test [1] concerns HCT-116.
The subject of test [2] is MDA-MB-435.
Test [3] concerns SF-268.
In test [4] the test system is HOP-62.
In test [5] the test system is NCI-H23.
Test [6] deals with CCRF-CEM.
In test [7] the test system is SR.
Test [8] deals with COLO 205.
In test [9] the test system is HL-60.
Test [10] deals with MOLT-4.
The test system of test [11] is K562.
The subject of test [12] is BT-549.
Test [13] relates to PC-3.
Test [14] relates to RPMI-8226.
Test [15] concerns NCI-H460.
Test [16] relates to SK-MEL-5.
For test [17], the system named is IGROV-1.
Test [18] concerns ACHN.
The test system of test [19] is M14.
Test [20] has as its system UACC-62.

Consider `Nc1cc(OCc2ccccc2)c(OCc2ccccc2)cc1C=O`, for which the GI50 is 21.2 µM (inactive) in test [1]; 39.8 µM (inactive) in test [2]; 65.2 µM (inactive) in [3]; > 10 µM (inactive) in test [4]; > 10 µM (inactive) in [5]; 22.3 µM (inactive) in test [6]. Besides, the GI50 is 26.6 µM (inactive) in test [7]; 24.7 µM (inactive) in [8]; 15.2 µM (inactive) in test [9]; 18.6 µM (inactive) in test [10]; 44.4 µM (inactive) in [11]; 14.5 µM (inactive) in [12]. The GI50 in [13] was 35.1 µM (inactive); in test [14], 27 µM (inactive); in test [15], 14.1 µM (inactive); in test [16], 24.7 µM (inactive); in test [17], 31.2 µM (inactive); in [18], 26 µM (inactive).

As to `CCCCCCCCCCCCCC(=O)OCC(CCS(=O)(=O)O[C@H]1CC[C@@]2(C)C(=CC[C@@H]3C2CC[C@]2(C)C(=O)CCC32)C1)OC(=O)CCCCCCCCCCCCC` (stereo partly drawn), the GI50 in test [19], in [20], in test [1], in test [2], in [3] and in test [4] was > 100 µM (inactive) in each case. The GI50 in test [5], in test [6], in test [7], in test [8], in test [9] and in [11] was > 100 µM (inactive) throughout. The GI50 in test [12], in [13], in test [14], in test [15], in [16] and in test [17] was > 100 µM (inactive) each time. For the same compound, in [18], the GI50 was > 100 µM (inactive).

`NS(=O)(=O)c1ccc(-c2ccc([As](=O)(O)O)cc2)cc1`: the GI50 was > 100 µM (inactive) in test [19]; > 100 µM (inactive) in test [20]; > 100 µM (inactive) in [1]; > 100 µM (inactive) in test [2]; > 100 µM (inactive) in test [3]; 78.3 µM (inactive) in [4]. Besides, the GI50 in test [5], in test [7], in test [8], in test [9], in test [10] and in test [11] was > 100 µM (inactive) in each case. Moreover, the GI50 in [12], in [13], in [14], in test [15], in test [16] and in test [17] was > 100 µM (inactive) in each case. In [18], the GI50 is > 100 µM (inactive).

With `CCCCCCCCCCC(O)C1CCC(C(O)CCC(O)C2CCC(CCCCCCC[C@H](O)CC3=C[C@@H](C)OC3=O)O2)O1` (stereo partly drawn), the GI50 was > 100 µM (inactive) in [19]; 4.02 µM (inactive) in test [20]; < 0.033 µM (active) in [1]; 6.28 µM (inactive) in test [2]; 9.23 µM (inactive) in test [3]; > 40.6 µM (inactive) in test [4]. Besides, the GI50 is 0.01 µM (active) in test [5]; 3.48 µM (inactive) in [6]; 0.01 µM (active) in test [7]; > 100 µM (inactive) in [8]; 0.01 µM (active) in [9]; 2.02 µM (inactive) in test [10]. In addition, the GI50 in [12] is 0.001 µM (active); in test [13] it was > 10 µM (inactive); in test [14], 0.855 µM (active); in test [15] it was > 22.9 µM (inactive); in [16] it was 0.01 µM (active); in test [17] it was 31.5 µM (inactive). Moreover, the GI50 in test [18] is 1.2 µM (inactive).

As to `Brc1ccc(C2CC3(c4ccccc4)ON=C(c4ccccc4)N3c3ccccc3S2)cc1` (stereo not drawn), the GI50 in [19] was > 100 µM (inactive); in test [20] it was > 100 µM (inactive); in [1], 5.87 µM (inactive); in test [2], > 100 µM (inactive); in test [3] it was > 100 µM (inactive); in [4], > 100 µM (inactive). For the same compound, the GI50 in test [5] was > 100 µM (inactive); in test [6], > 100 µM (inactive); in test [7] it was 28.1 µM (inactive); in [8], > 100 µM (inactive); in test [9], > 100 µM (inactive); in test [10] it was > 100 µM (inactive). Besides, the GI50 in [11], in [12], in test [13], in test [15], in test [16] and in test [17] was > 100 µM (inactive) each time. Besides, the GI50 in test [18] was > 100 µM (inactive).

As for `O=C1CC2(c3ccccc3)ON=C(c3ccccc3)N2c2ccccc2N1` (stereo not drawn), the GI50 in test [19] was 60.4 µM (inactive); in test [20] it was 37.5 µM (inactive); in test [1], 34.3 µM (inactive); in test [2], 20 µM (inactive); in test [3] it was 50.5 µM (inactive); in test [4], 78.7 µM (inactive). Moreover, the GI50 in [5] is 47.3 µM (inactive); in [6], 42.2 µM (inactive); in test [7], 35.6 µM (inactive); in [8] it was 51.8 µM (inactive); in test [9], 26.7 µM (inactive); in test [10] it was 29.7 µM (inactive). In addition, the GI50 was 38.8 µM (inactive) in [11]; 37.2 µM (inactive) in test [12]; 30.5 µM (inactive) in test [13]; 63.4 µM (inactive) in test [14]; 36.7 µM (inactive) in test [15]; 58.5 µM (inactive) in test [17]. The GI50 in test [18] is 61.8 µM (inactive).

Regarding `CC(C)(C)c1cc(C(O)(C(=O)O)C(=O)O)cc(C(C)(C)C)c1O`, the GI50 in [19], in [20], in test [1], in test [2], in test [3] and in test [4] was > 100 µM (inactive) throughout. The GI50 in test [5], in test [6], in test [7], in [8], in test [9] and in [10] was > 100 µM (inactive) throughout. Also, the GI50 in test [11], in test [12], in test [13], in test [14], in test [16] and in [17] was > 100 µM (inactive) throughout. Further, the GI50 in [18] is > 100 µM (inactive).

`COC(=O)/C(C#N)=C(\Nc1ccccc1)N1CCCC1`: the GI50 in test [19], in test [1], in test [2], in test [3], in test [4] and in test [5] was > 100 µM (inactive) each time. For the same compound, the GI50 in test [7], in test [8], in [9], in [10], in test [11] and in test [12] was > 100 µM (inactive) throughout. In addition, the GI50 in test [13], in test [14], in [15], in test [16], in test [17] and in test [18] was > 100 µM (inactive) in each case.

As to `COc1ccc2c(c1)/C(=C\c1c(C)nc3n1CCS3)C(=O)N2`, the GI50 was 23 µM (inactive) in test [19]; 22.7 µM (inactive) in test [20]; 19.2 µM (inactive) in [1]; 3.12 µM (inactive) in [2]; 32.3 µM (inactive) in test [4]; 24.5 µM (inactive) in test [5]. In addition, the GI50 was 24.7 µM (inactive) in test [6]; 9.14 µM (inactive) in test [7]; 9.42 µM (inactive) in test [8]; 15.6 µM (inactive) in test [9]; 32.4 µM (inactive) in [10]; 10.3 µM (inactive) in test [11]. The GI50 was 21.1 µM (inactive) in test [12]; 16.3 µM (inactive) in [13]; 34.5 µM (inactive) in test [14]; 20 µM (inactive) in test [15]; 34 µM (inactive) in [16]; 16.7 µM (inactive) in test [17]. For the same compound, the GI50 in [18] was 40.5 µM (inactive).

Turning to `Cc1cc(N2CCCC2)c([N+](=O)[O-])cc1[N+](=O)[O-]`, the GI50 in test [19], in [20], in [1], in test [2], in [3] and in test [5] was > 100 µM (inactive) in each case. Besides, the GI50 in test [6], in test [7], in test [8], in test [9], in test [10] and in test [11] was > 100 µM (inactive) throughout. Also, the GI50 in [12], in [13], in test [14], in [15], in [16] and in test [17] was > 100 µM (inactive) in each case. Moreover, the GI50 in [18] was > 100 µM (inactive).
